Assays:
[1] = target: T1, human adenosine A2A receptor (Homo sapiens, UniProt P29274); assay: [3H]-SCH-58261 binding assay, human adenosine A2A receptor (CHO cell membranes, SPA); settings: for Ki: [3H]-SCH-58261 displacement, Ki by Cheng-Prussoff, table of preferred compounds, read-out: hA2a Ki; for Select. A1/A2a: ratio hA1 Ki / hA2a Ki
T1 construct: expressed in transfected cells; host or cells: CHO cells, semliki forest virus expression system; washed membranes

hA1 = target: T2, hA1 (Homo sapiens, UniProt P30542); assay: hA1 receptor affinity (Ki); type: binding; settings: list of examples 10-108
T2 sequence (P30542 1-326): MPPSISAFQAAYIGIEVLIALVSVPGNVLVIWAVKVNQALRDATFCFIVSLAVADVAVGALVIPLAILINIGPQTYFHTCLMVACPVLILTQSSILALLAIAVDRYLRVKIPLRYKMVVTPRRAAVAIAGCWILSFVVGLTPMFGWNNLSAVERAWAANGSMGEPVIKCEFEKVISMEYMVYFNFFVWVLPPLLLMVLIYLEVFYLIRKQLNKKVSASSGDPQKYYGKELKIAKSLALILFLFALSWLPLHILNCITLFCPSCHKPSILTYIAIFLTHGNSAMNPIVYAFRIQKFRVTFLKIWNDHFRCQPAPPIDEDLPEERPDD

T1 sequence (P29274 whole entry): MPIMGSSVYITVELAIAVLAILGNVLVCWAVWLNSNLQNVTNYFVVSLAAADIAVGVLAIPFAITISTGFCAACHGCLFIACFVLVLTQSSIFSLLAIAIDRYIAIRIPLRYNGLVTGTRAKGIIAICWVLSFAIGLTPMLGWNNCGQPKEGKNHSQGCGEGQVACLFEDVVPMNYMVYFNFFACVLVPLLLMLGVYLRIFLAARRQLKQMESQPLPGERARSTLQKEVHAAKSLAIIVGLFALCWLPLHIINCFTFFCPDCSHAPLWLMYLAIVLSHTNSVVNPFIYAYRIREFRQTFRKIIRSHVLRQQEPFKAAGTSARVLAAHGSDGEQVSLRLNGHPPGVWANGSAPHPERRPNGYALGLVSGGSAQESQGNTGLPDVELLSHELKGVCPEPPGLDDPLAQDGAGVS

SMILES	Ki [1] [µM]	Select. A1/A2a [1]	Ki (hA1) [µM]
C[C@@H]1C[C@@H](C)CN(C(=O)c2cc(N)c3nc(-c4ccc(Br)o4)nn3c2)C1 (stereo in doubt) [Example 14, [8-Amino-2-(5-bromo-furan-2-yl)-[1,2,4]triazolo[1,5-a]pyridin-6-yl]-(3,5-dimethyl-piperidin-1-yl)-methanone]	0.0372	32	1.19
COC[C@H]1CCCN1C(=O)c1cc(N)c2nc(-c3ccco3)nn2c1 [Example 42, (8-Amino-2-furan-2-yl-[1,2,4]triazolo[1,5-a]pyridin-6-yl)-(2-S-methoxymethyl-pyrrolidin-1-yl)-methanone]	0.0694	81.1	5.63
CN(C)C(=O)[C@@H]1CCCN1C(=O)c1cc(N)c2nc(-c3ccc(Br)o3)nn2c1 [Example 18, 1-[8-Amino-2-(5-bromo-furan-2-yl)-[1,2,4]triazolo[1,5-a]pyridine-6-carbonyl]-pyrrolidine-2-carboxylic acid (S)-dimethylamide]	0.067	16.5	1.11
